Where a name gives a salt, the structure may show the parent alone. Read-outs that look alike come from different tables or passages of the source.
Columns and labels:
KMS-11 = experiment: Cytostatic activity on human multiple myeloma cell line KMS-11 (WST-1); type: cell-based; conditions: for inhibition at 10 µM / inhibition at 1 µM: Homo sapiens, KMS-11, 72 h; for inhibition at 10 µM: 10 μmol/L, read-out: cytostatic rate (%) KMS-11 (10 μmol/L); for inhibition at 1 µM: read-out: cytostatic rate (%) KMS-11 (1 μmol/L)
Outline: (§1)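 Cells pre-cultured 24 h at 37 °C, 5% CO2, then exposed 72 h to compound at final 1 or 10 μmol/L (0.1% DMSO). WST-1 added for 2 h, absorbance at 450 nm (ref 690 nm). Cytostatic rate = 100 minus relative growth, with DMSO control as 100% and blank as 0%.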

IGF-1R = target: T1, IGF-1R (Homo sapiens, UniProt P08069); experiment: IGF-1R inhibitory activity (kinase reaction, time-resolved fluoroimmunoassay); type: biochemical; conditions: test compound 10 μmol/L
T1 construct: purchased Upstate Co. 14-465
T1 sequence (P08069 959-1367 limits assumed): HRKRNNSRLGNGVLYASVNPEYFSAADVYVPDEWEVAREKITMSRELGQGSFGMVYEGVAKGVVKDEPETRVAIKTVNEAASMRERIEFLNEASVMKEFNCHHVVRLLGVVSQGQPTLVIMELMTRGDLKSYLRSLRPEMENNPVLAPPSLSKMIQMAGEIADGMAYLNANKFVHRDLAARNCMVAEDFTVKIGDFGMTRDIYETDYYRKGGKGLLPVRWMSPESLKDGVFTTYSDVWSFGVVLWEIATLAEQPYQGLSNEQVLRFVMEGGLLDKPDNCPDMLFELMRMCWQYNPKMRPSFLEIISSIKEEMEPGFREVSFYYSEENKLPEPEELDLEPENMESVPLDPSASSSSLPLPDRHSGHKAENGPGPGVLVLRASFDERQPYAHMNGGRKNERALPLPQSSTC
Outline: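 Compounds were tested at a single 10 μmol/L concentration. Each was incubated with recombinant IGF-1R (200 μg/L), 10 mmol/L ATP, MgCl2/MnCl2 and Na3VO4 (pH 7.5) on immobilized poly(Glu-Tyr) peptide for 30 min at 24° C. Eu-anti-phosphotyrosine time-resolved fluorescence (340/615 nm) gave relative activity against no-compound and no-enzyme wells, reported as % inhibition.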

NCI-H929 = experiment: Cytostatic activity on human multiple myeloma cell line NCI-H929 (WST-1); type: cell-based; conditions: for inhibition at 10 µM / inhibition at 1 µM: Homo sapiens, NCI-H929, 72 h; for inhibition at 10 µM: 10 μmol/L, read-out: cytostatic rate (%) H929 (10 μmol/L); for inhibition at 1 µM: read-out: cytostatic rate (%) H929 (1 μmol/L)
Outline: as §1

[1] = IGF-1R active recombinant enzyme
[2] = KMS-11 cells, test compound 1 μmol/L, WST-1
[3] = NCI-H929 cells, test compound 1 μmol/L, WST-1

Row | Compound | inhibition at 10 µM (IGF-1R; [1]) [%] | inhibition at 10 µM (KMS-11; 72 hours) [%] | inhibition at 10 µM (NCI-H929; 72 hours) [%] | other results
1 | COc1cccc(/C=C/c2n[nH]c3ccccc23)c1NC(=O)c1sccc1C [Compound 94, (E)-N-{2-[2-(1H-indazol-3-yl)vinyl]-6-methoxyphenyl}-3-methylthiophene-2-carboxamide] | – | 143 | 125 | inhibition at 10 µM (IGF-1R): 95.4%
2 | N#Cc1ccccc1/C=C/c1n[nH]c2ccccc12 [Compound 136, (E)-2-[2-(1H-indazol-3-yl)vinyl]benzonitrile] | 85.3 | 38.4 | 87.7 | –
3 | CC(=O)N1CCN(C(=O)c2ccc(/C=C/c3n[nH]c4ccccc34)c(NC(=O)Cc3cccs3)c2)CC1 [Compound 89, (E)-N-{5-(4-acetylpiperazin-1-ylcarbonyl)-2-[2-(1H-indazol-3-yl)vinyl]phenyl}-2-(thiophen-2-yl)acetamide] | – | 138 | 114 | inhibition at 10 µM (IGF-1R): 98.4%
4 | O=C(Nc1nccs1)c1ccccc1/C=C/c1n[nH]c2ccccc12 [Compound 138, (E)-2-[2-(1H-indazol-3-yl)vinyl]-N-(thiazol-2-yl)benzamide] | 97.2 | 101 | 114 | –
5 | Cn1cc(N)cc1C(=O)Nc1ccccc1/C=C/c1n[nH]c2ccccc12 [Compound 76, (E)-4-amino-N-{2-[2-(1H-indazol-3-yl)vinyl]phenyl}-1-methyl-1H-pyrrole-2-carboxamide trifluoroacetate] | 99.2 | 126 | 109 | –
6 | O=C(Nc1ccccc1/C=C/c1n[nH]c2ccccc12)c1cccc(F)c1 [Compound 7, (E)-3-fluoro-N-{2-[2-(1H-indazol-3-yl)vinyl]phenyl}benzamide] | 98.6 | 121 | 115 | –
7 | CON(C)C(=O)c1ccc(/C=C/c2n[nH]c3ccccc23)c(NC(=O)c2sccc2C)c1 [Compound 320, (E)-{2-[2-(1H-indazol-3-yl)vinyl]-5-(N-methoxy N-methylcarbamoyl)phenyl}-3-methyl-2-carboxamide] | – | – | – | cytostatic rate (%) KMS-11 (1 μmol/L) (KMS-11; [2]): 112.1%; inhibitory activity (%) at 10 μmol/L (IGF-1R; [1]): 102.1%; cytostatic rate (%) H929 (1 μmol/L) (NCI-H929; [3]): 122.8%
8 | NC(=S)Nc1ccccc1/C=C/c1n[nH]c2ccccc12 [Compound 161, (E)-N-{2-[2-(1H-indazol-3-yl)vinyl]phenyl}thiourea] | 95.9 | 92.8 | 113 | –
9 | O=C(Nc1ccccc1/C=C/c1n[nH]c2ccccc12)C1CCCO1 (stereo not drawn) [Compound 32, (E)-N-{2-[2-(1H-indazol-3-yl)vinyl]phenyl}tetrahydrofuran-2-carboxamide] | 98.6 | 126 | 113 | –
10 | Cc1ccsc1C(=O)Nc1cc(CN2CCOCC2)ccc1/C=C/c1n[nH]c2ccccc12 [Compound 224, (E)-N-{2-[2-(1H-indazol-3-yl)vinyl]-5-(morpholin-4-ylmethyl)phenyl}-3-methylthiophene-2-carboxamide hydrochloride] | 100 | – | – | inhibition at 1 µM (KMS-11; 1 μmol/L, 72 hours): 119%; inhibition at 1 µM (NCI-H929; 1 μmol/L, 72 hours): 119%
11 | Cc1ccsc1C(=O)Nc1cc(C(=O)N2CCC(O)CC2)ccc1/C=C/c1n[nH]c2ccccc12 [Compound 219, (E)-N-{2-[2-(1H-indazol-3-yl)vinyl]-5-(4-hydroxypiperidin-1-ylcarbonyl)phenyl}-3-methylthiophene-2-carboxamide hydrochloride] | 99.4 | – | – | inhibition at 1 µM (KMS-11; 1 μmol/L, 72 hours): 108%; inhibition at 1 µM (NCI-H929; 1 μmol/L, 72 hours): 111%
12 | C(=C\c1n[nH]c2ccccc12)/c1ccccc1OCc1ccccc1 [Compound 13, (E)-3-[2-(2-benzyloxyphenyl)vinyl]-1H-indazole] | 96.9 | 105 | 116 | –
13 | Nc1ccc(C(=O)Nc2ccccc2/C=C/c2n[nH]c3ccccc23)c(Cl)c1 [Compound 84, (E)-4-amino-2-chloro-N-{2-[2-(1H-indazol-3-yl)vinyl]phenyl}benzamide] | – | 107 | 113 | inhibition at 10 µM (IGF-1R): 100%
14 | O=C(Nc1ccccc1/C=C/c1n[nH]c2ccccc12)c1cccnc1 [Compound 6, (E)-N-{2-[2-(1H-indazol-3-yl)vinyl]phenyl}nicotinamide] | 97.8 | 120 | 115 | –
15 | CN(C)c1cccc(C(=O)Nc2ccccc2/C=C/c2n[nH]c3ccccc23)c1 [Compound 27, (E)-3-dimethylamino-N-{2-[2-(1H-indazol-3-yl)vinyl]phenyl}benzamide] | 99.3 | 114 | 119 | –
16 | Cn1cccc1C(=O)Nc1cc(CN2CCNCC2)ccc1/C=C/c1n[nH]c2ccccc12 [Compound 332] | – | – | – | cytostatic rate (%) KMS-11 (1 μmol/L) (KMS-11; [2]): 89.9%; inhibitory activity (%) at 10 μmol/L (IGF-1R; [1]): 102.6%; cytostatic rate (%) H929 (1 μmol/L) (NCI-H929; [3]): 113.9%
17 | Cc1cc(N)sc1C(=O)Nc1ccccc1/C=C/c1n[nH]c2ccccc12 [Compound 67, (E)-5-amino-N-{2-[2-(1H-indazol-3-yl)vinyl]phenyl}-3-methylthiophene-2-carboxamide] | 95.6 | 100 | 119 | –
18 | Cc1ncsc1C(=O)Nc1ccccc1/C=C/c1n[nH]c2ccccc12 [Compound 174, (E)-N-{2-[2-(1H-indazol-3-yl)vinyl]phenyl}-4-methylthiazole-5-carboxamide] | 103 | 82.6 | 109 | –

More lines, main results first:

Row | inhibition at 10 µM (IGF-1R; [1]) [%] | Compound | inhibition at 10 µM (KMS-11; 72 hours) [%] | inhibition at 10 µM (NCI-H929; 72 hours) [%] | other results
19 | 101 | CNC1CCN(C(=O)c2ccc(/C=C/c3n[nH]c4ccccc34)c(NC(=O)c3sccc3C)c2)C1 (stereo not drawn) [Compound 283, (E)-N-{2-[2-(1H-indazol-3-yl)vinyl]-5-[3-(methylamino)pyrrolidin-1-ylcarbonyl]phenyl}-3-methylthiophene-2-carboxamide] | – | – | inhibition at 1 µM (KMS-11; 1 μmol/L, 72 hours): 116%; inhibition at 1 µM (NCI-H929; 1 μmol/L, 72 hours): 128%
20 | 99.3 | Cc1ccsc1C(=O)Nc1cc(C(=O)NCCN(C)C)ccc1/C=C/c1n[nH]c2ccccc12 [Compound 229, (E)-N-{5-[2-(dimethylamino)ethylcarbamoyl]-2-[2-(1H-indazol-3-yl)vinyl]phenyl}-3-methylthiophene-2-carboxamide hydrochloride] | – | – | inhibition at 1 µM (KMS-11; 1 μmol/L, 72 hours): 66.8%; inhibition at 1 µM (NCI-H929; 1 μmol/L, 72 hours): 121%
21 | 101 | Cc1ccsc1C(=O)Nc1cc(C(=O)N(C)CCO)ccc1/C=C/c1n[nH]c2ccccc12 [Compound 327, (E)-N-{5-[N-(2-hydroxyethyl)-N-methylcarbamoyl]-2-[2-(1H-indazol-3-yl)vinyl]phenyl}-3-methylthiophene-2-carboxamide] | – | – | inhibition at 1 µM (KMS-11; [2]): 98%; inhibition at 1 µM (NCI-H929; [3]): 116%
22 | 101 | COCCCN1CCN(Cc2ccc(/C=C/c3n[nH]c4ccccc34)c(N3Cc4c(N)cccc4C3=O)c2)CC1 [Compound 321, (E)-4-amino-2-{5-[4-(3-methoxypropyl)piperazin-1-ylmethyl]-2-[2-(1H-indazol-3-yl)vinyl]phenyl}-2,3-dihydroisoindole-1-one] | – | – | cytostatic rate (%) KMS-11 (1 μmol/L) (KMS-11; [2]): 102.3%; inhibition at 1 µM (NCI-H929; [3]): 122%
23 | 104 | CCN(CCO)CCCOc1ccc(/C=C/c2n[nH]c3ccccc23)c(NC(=O)c2sccc2C)c1OC [Compound 339, (E)-N-{3-{3-[N-ethyl(2-hydroxyethyl)amino]propoxy}-6-[2-(1H-indazol-3-yl)vinyl]-2-methoxyphenyl}-3-methylthiophene-2-carboxamide] | – | – | inhibition at 1 µM (KMS-11; [2]): 118%; inhibition at 1 µM (NCI-H929; [3]): 119%
24 | 103 | COc1c(OCCN2CCOCC2)ccc(/C=C/c2n[nH]c3ccccc23)c1NC(=O)c1sccc1C [Compound 266, (E)-N-{6-[2-(1H-indazol-3-yl)vinyl]-2-methoxy-3-(2-morpholinoethoxy)phenyl}-3-methylthiophene-2-carboxamide] | – | – | inhibition at 1 µM (KMS-11; 1 μmol/L, 72 hours): 131%; inhibition at 1 µM (NCI-H929; 1 μmol/L, 72 hours): 118%
25 | 100 | CN(CCO)c1ccc(/C=C/c2n[nH]c3ccccc23)c(NC(=O)c2cccn2C)c1 [Compound 305, (E)-N-{5-[N-(2-hydroxyethyl)methylamino]-2-[2-(1H-indazol-3-yl)vinyl]phenyl}-1-methyl-1H-pyrrole-2-carboxamide] | – | – | inhibition at 1 µM (KMS-11; [2]): 110%; inhibition at 1 µM (NCI-H929; [3]): 118%
26 | 109 | CN[C@@H]1CN(CCCOc2ccc(/C=C/c3n[nH]c4ccccc34)c(NC(=O)c3sccc3C)c2OC)C[C@H]1OC (relative stereo) [Compound 348, (E)-N-(6-[2-(1H-indazol-3-yl)vinyl]-2-methoxy-3-{3-[(3R*,4R*)-3-methoxy-4-(methylamino)pyrrolidin-1-yl]propoxy}phenyl)-3-methylthiophene-2-carboxamide] | – | – | inhibition at 1 µM (KMS-11; 1 μmol/L, 72 hours): 117%; inhibition at 1 µM (NCI-H929; 1 μmol/L, 72 hours): 116%
